Test results as given in PubChem BioAssay AID1963839 (Molecular Pharmacology Branch, DTP, NCI, 2024).

System: 817829-284-R-J1-PDC complex spheroid viability
Assay: Anticancer human tumor 817829-284-R-J1-PDC patient-derived colon adenocarcinoma cell line growth inhibition [POLQ]
Conditions: for IC50: curve of first compound; for viability, T/C: stronger effect = lower value
Summary of the method: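 Complex spheroid viability model combining PDC tumour cells with endothelial (HUVEC) and MSC stromal cells. Novobiocin, ART-558 or RP6685 were tested singly and in combination with standard and investigational anticancer drugs. Each was titrated in half-log steps from near clinical Cmax, or from 10 microM where Cmax was unknown.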

[1] = second compound 0.0316 µM, first compound 0.0316 µM
[2] = second compound 0.0316 µM, first compound 0.1 µM
[3] = second compound 0.0316 µM, first compound 0.316 µM
[4] = second compound 0.0316 µM, first compound 1 µM
[5] = second compound 0.0316 µM, first compound 3.16 µM
[6] = second compound 0.0316 µM, first compound 10 µM
[7] = second compound 0.1 µM, first compound 0.0316 µM
[8] = second compound 0.1 µM, first compound 0.1 µM
[9] = second compound 0.1 µM, first compound 0.316 µM
[10] = second compound 0.1 µM, first compound 1 µM
[11] = second compound 0.1 µM, first compound 3.16 µM
[12] = second compound 0.1 µM, first compound 10 µM
[13] = second compound 0.316 µM, first compound 0.0316 µM
[14] = second compound 0.316 µM, first compound 0.1 µM
[15] = second compound 0.316 µM, first compound 0.316 µM
[16] = second compound 0.316 µM, first compound 1 µM
[17] = second compound 0.316 µM, first compound 3.16 µM
[18] = second compound 0.316 µM, first compound 10 µM
[19] = second compound 1 µM, first compound 0.0316 µM
[20] = second compound 1 µM, first compound 0.1 µM
[21] = second compound 1 µM, first compound 0.316 µM
[22] = second compound 1 µM, first compound 1 µM
[23] = second compound 1 µM, first compound 3.16 µM
[24] = second compound 1 µM, first compound 10 µM
[25] = second compound 3.16 µM, first compound 0.0316 µM
[26] = second compound 3.16 µM, first compound 0.1 µM
[27] = second compound 3.16 µM, first compound 0.316 µM
[28] = second compound 3.16 µM, first compound 1 µM
[29] = second compound 3.16 µM, first compound 3.16 µM
[30] = second compound 3.16 µM, first compound 10 µM
[31] = second compound 10 µM, first compound 0.0316 µM
[32] = second compound 10 µM, first compound 0.1 µM
[33] = second compound 10 µM, first compound 0.316 µM
[34] = second compound 10 µM, first compound 1 µM
[35] = second compound 10 µM, first compound 3.16 µM
[36] = second compound 10 µM, first compound 10 µM
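Also: spheroids exposed to compounds for 7 days.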
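For viability, T/C in this document: 100% = DMSO vehicle-treated spheroids.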

Structure (SMILES): CCc1cc2c(N3CCc4c(cc(Cn5ccnc5)cc4-c4cn(C)nc4C(F)(F)F)C3=O)ccnc2c(OC)n1 + COC1C(OC(N)=O)C(O)C(Oc2ccc3c(O)c(NC(=O)c4ccc(O)c(CC=C(C)C)c4)c(=O)oc3c2C)OC1(C)C
- IC50 (second compound 0.0316 µM): 2.92 µM
- IC50 (second compound 0.1 µM): 3.3 µM
- IC50 (second compound 0.316 µM): 5.17 µM
- IC50 (second compound 1 µM): 1.58 µM
- IC50 (second compound 3.16 µM): 6.94 µM
- IC50 (second compound 10 µM): 4.32 µM
- viability, T/C [1]: 79%
- viability, T/C [2]: 80.2%
- viability, T/C [3]: 84.7%
- viability, T/C [4]: 70%
- viability, T/C [5]: 49%
- viability, T/C [6]: 32.2%
- viability, T/C [7]: 90.3%
- viability, T/C [8]: 94%
- viability, T/C [9]: 83.2%
- viability, T/C [10]: 70.3%
- viability, T/C [11]: 51.6%
- viability, T/C [12]: 29.7%
- viability, T/C [13]: 82.8%
- viability, T/C [14]: 98.2%
- viability, T/C [15]: 77.7%
- viability, T/C [16]: 97.5%
- viability, T/C [17]: 57.8%
- viability, T/C [18]: 39.5%
- viability, T/C [19]: 95.7%
- viability, T/C [20]: 73%
- viability, T/C [21]: 97.3%
- viability, T/C [22]: 53.3%
- viability, T/C [23]: 54.9%
- viability, T/C [24]: 35.2%
- viability, T/C [25]: 72.8%
- viability, T/C [26]: 83.7%
- viability, T/C [27]: 89.4%
- viability, T/C [28]: 68.3%
- viability, T/C [29]: 63.7%
- viability, T/C [30]: 44.2%
- viability, T/C [31]: 104%
- viability, T/C [32]: 82.2%
- viability, T/C [33]: 75.2%
- viability, T/C [34]: 75.2%
- viability, T/C [35]: 57%
- viability, T/C [36]: 35.2%

Structure (SMILES): O=C(Nc1ccc(O)c(NS(=O)(=O)c2ccc(F)cc2)c1)c1ccc(-c2ccccc2)cc1 + Cc1cccc(N(C)C(=O)C2C(O)CCN2c2nc(C)cc(C(F)(F)F)c2C#N)c1
- IC50 (second compound 0.0316 µM): 8.08 µM
- IC50 (second compound 0.1 µM): 7.5 µM
- IC50 (second compound 0.316 µM): 8.91 µM
- IC50 (second compound 1 µM): 6.36 µM
- IC50 (second compound 3.16 µM): 5.44 µM
- IC50 (second compound 10 µM): 5.2 µM
- viability, T/C [1]: 110%
- viability, T/C [2]: 106%
- viability, T/C [3]: 113%
- viability, T/C [4]: 78.7%
- viability, T/C [5]: 91.2%
- viability, T/C [6]: 41%
- viability, T/C [7]: 98.8%
- viability, T/C [8]: 79.1%
- viability, T/C [9]: 106%
- viability, T/C [10]: 90.5%
- viability, T/C [11]: 72.6%
- viability, T/C [12]: 42.5%
- viability, T/C [13]: 96.3%
- viability, T/C [14]: 93.2%
- viability, T/C [15]: 95.9%
- viability, T/C [16]: 87.9%
- viability, T/C [17]: 87.6%
- viability, T/C [18]: 45.5%
- viability, T/C [19]: 80.6%
- viability, T/C [20]: 90.5%
- viability, T/C [21]: 92.4%
- viability, T/C [22]: 94.7%
- viability, T/C [23]: 64.8%
- viability, T/C [24]: 40.4%
- viability, T/C [25]: 95.6%
- viability, T/C [26]: 101%
- viability, T/C [27]: 102%
- viability, T/C [28]: 98.9%
- viability, T/C [29]: 60.8%
- viability, T/C [30]: 37.9%
- viability, T/C [31]: 98.4%
- viability, T/C [32]: 84.5%
- viability, T/C [33]: 92.5%
- viability, T/C [34]: 83.7%
- viability, T/C [35]: 65%
- viability, T/C [36]: 30%

Structure (SMILES): O=c1[nH]cc(F)c(=O)[nH]1 + Cc1cccc(N(C)C(=O)C2C(O)CCN2c2nc(C)cc(C(F)(F)F)c2C#N)c1
- IC50 (second compound 0.0316 µM): 1.98 µM
- IC50 (second compound 0.1 µM): 3.12 µM
- IC50 (second compound 0.316 µM): > 10 µM
- IC50 (second compound 1 µM): 3.1 µM
- IC50 (second compound 3.16 µM): 3.65 µM
- IC50 (second compound 10 µM): 2.53 µM
- viability, T/C [1]: 98.2%
- viability, T/C [2]: 119%
- viability, T/C [3]: 68.2%
- viability, T/C [4]: 72.5%
- viability, T/C [5]: 34.8%
- viability, T/C [6]: 38.9%
- viability, T/C [7]: 91.4%
- viability, T/C [8]: 126%
- viability, T/C [9]: 110%
- viability, T/C [10]: 75.4%
- viability, T/C [11]: 55.9%
- viability, T/C [12]: 42.1%
- viability, T/C [13]: 92.1%
- viability, T/C [14]: 98%
- viability, T/C [15]: 106%
- viability, T/C [16]: 74.4%
- viability, T/C [17]: 55.4%
- viability, T/C [18]: 45.8%
- viability, T/C [19]: 72.5%
- viability, T/C [20]: 118%
- viability, T/C [21]: 98.8%
- viability, T/C [22]: 75.1%
- viability, T/C [23]: 52.7%
- viability, T/C [24]: 39.9%
- viability, T/C [25]: 89.9%
- viability, T/C [26]: 112%
- viability, T/C [27]: 102%
- viability, T/C [28]: 77%
- viability, T/C [29]: 54.7%
- viability, T/C [30]: 36.3%
- viability, T/C [31]: 101%
- viability, T/C [32]: 91.8%
- viability, T/C [33]: 94.1%
- viability, T/C [34]: 60.4%
- viability, T/C [35]: 52%
- viability, T/C [36]: 42.6%

Structure (SMILES): COc1ccc([C@@H](O)c2cc(-c3ncnc4cc(N5CCOCC5)ccc34)c(F)cc2Cl)nn1 + Nc1ccc(C#CCN(C(=O)Cc2ncc(C(F)(F)F)cc2C(F)(F)F)c2ccc(F)cc2)nn1
- IC50 (second compound 0.0316 µM): 1.19 µM
- IC50 (second compound 0.1 µM): 0.701 µM
- IC50 (second compound 0.316 µM): 1.19 µM
- IC50 (second compound 1 µM): 0.925 µM
- IC50 (second compound 3.16 µM): 1.12 µM
- IC50 (second compound 10 µM): 0.46 µM
- viability, T/C [1]: 109%
- viability, T/C [2]: 85.4%
- viability, T/C [3]: 85%
- viability, T/C [4]: 52%
- viability, T/C [5]: 28.9%
- viability, T/C [6]: 17.7%
- viability, T/C [7]: 121%
- viability, T/C [8]: 89.8%
- viability, T/C [9]: 63.5%
- viability, T/C [10]: 42.4%
- viability, T/C [11]: 33.9%
- viability, T/C [12]: 23.3%
- viability, T/C [13]: 96.8%
- viability, T/C [14]: 83.2%
- viability, T/C [15]: 77.9%
- viability, T/C [16]: 55.3%
- viability, T/C [17]: 27.9%
- viability, T/C [18]: 20.7%
- viability, T/C [19]: 98.3%
- viability, T/C [20]: 86.8%
- viability, T/C [21]: 71.8%
- viability, T/C [22]: 46.5%
- viability, T/C [23]: 32.1%
- viability, T/C [24]: 19.1%
- viability, T/C [25]: 103%
- viability, T/C [26]: 86%
- viability, T/C [27]: 65%
- viability, T/C [28]: 55.2%
- viability, T/C [29]: 34.2%
- viability, T/C [30]: 20.9%
- viability, T/C [31]: 106%
- viability, T/C [32]: 74.3%
- viability, T/C [33]: 56.5%
- viability, T/C [34]: 39.1%
- viability, T/C [35]: 28.5%
- viability, T/C [36]: 16%
